Measured values from patent US20160264593A1 (priority 2013, published 2016).
Where “and” joins values, the source holds several entries; their conditions need not be identical. Equal entries are not always repeated.

Test: Pharmacokinetic study of 151 (and 100) in SD rats, iv and oral; plasma
Details: for AUC0-t of 151 / AUC0-∞ of 151 / CL of 151 / MRT of 151 / T1/2 of 151 / Vss of 151 / Cmax of 151: plasma
Experimental: A pharmacokinetic study of 151 was conducted in SD rats. The study consisted of two dose levels at 1.0 (iv) and 10 (oral) mg/kg. The blood samples were collected at predetermined times from rats and centrifuged to separate plasma. An LC/MS/MS method was developed to determine the test article in plasma samples. The pharmacokinetic parameters of 151 following iv and oral administration to SD rats were calculated. The absolute bioavailability was evaluated.
The final concentration of the test article was 0.2 mg/mL for iv administration and 1.0 mg/mL for oral administration. The test article solutions were administered using the most recent body weight for each animal.
Blood (approximately 0.3 mL) were collected via orbital plexus into tubes containing sodium heparin at 0.25, 0.5, 1, 2, 3, 5, 7, 9, and 24 hours after oral administration; at 5 min, 15 min, 0.5, 1, 2, 3, 5, 7, 9 and 24 hours after iv administration. Samples were centrifuged for 5 min, at 4° C. with the centrifuge set at 11,000 rpm to separate plasma. The obtained plasma samples were stored frozen at a temperature of about −70° C. until analysis.
Frozen plasma samples were thawed at room temperature and vortexed thoroughly. With a pipette, an aliquot (30 μL) of plasma was transferred into a 1.5-mL conical polypropylene tube. To each sample, 160 μL of acetonitrile were added. The samples were then vigorously vortex-mixed for 1 min. After centrifugation at 11000 rpm for 5 min, a 15 μL aliquot of the supernatant was injected into the LC-MS/MS system for analysis.
Calibration standards were prepared by spiking 30 μL of the 151 standard solutions into 30 μL of heparinized blank rat plasma. The nominal standard concentrations in the standard curve were 1.00, 3.00, 10.0, 30.0, 100, 300, 1000 and 3000 ng/mL.
The analysis was performed using an LC-MS/MS system consisting of the following components—HPLC system: Agilent 1200 series instrument consisting of G1312B vacuum degasser, G1322A binary pump, G1316B column oven and G1367D autosampler (Agilent, USA); MS/MS system: Agilent 6460 triple quadrupole mass spectrometer, equipped with an APCI Interface (Agilent, USA); Data system: MassHunter Software (Agilent, USA).
Chromatographic separation was carried out at room temperature—Analytical column: C8 column (4.6 mm×150 mm I.D., 5 μm, Agilent, USA); Mobile phase: Acetonitrile:10 mM ammonium acetate (75:25, v/v); Flow rate: 0.80 mL/min; Injection volume: 15 μL.
The mass spectrometer was operated in the positive mode. Ionization was performed applying the following parameters: gas temperature, 325° C.; vaporizer temperature, 350° C.; gas flow, 4 L/min; nebulizer, 20 psi; capillary voltage, 4500 V; corona current, 4 μA. 151 was detected using MRM of the transitions m/z 283→m/z 123 and m/z 283→m/z 251, simultaneously. The optimized collision energies of 25 eV and 10 eV were used for m/z 123 and m/z 251, respectively.
Quantification was achieved by the external standard method. Concentrations of the test article were calculated using a weighted least-squares linear regression (W=1/x^2).
The pharmacokinetic parameters were evaluated using WinNonlin version 5.3 (Pharsight Corp., Mountain View, Calif., USA), assuming a non-compartmental model for drug absorption and distribution. • AUC0-t is the area under the plasma concentration-time curve from time zero to last sampling time, calculated by the linear trapezoidal rule. • AUC0-∞ is the area under the plasma concentration-time curve from time zero extrapolating to infinity. • T1/2 is the elimination half-life associated with the terminal (log-linear) elimination phase, which is estimated via linear regression of time vs. log concentrations. • CL is the total body clearance. • Vss is the volume of distribution at steady-state.

[1] = 151 IV 1.0 mg/kg, SD rats, individual, 1 mg/kg
[2] = 151 IV 1.0 mg/kg, SD rats, mean
[3] = 151 PO 10 mg/kg, SD rats, individual, 10 mg/kg

## COC(=O)C1C2CCC(O2)C1C(=O)N1CCN(C)CC1 (centres unmarked) [Compound 151]
151 IV 1.0 mg/kg, SD rats, 0.083 h, individual, 1 mg/kg
  151 plasma concentration: 1677 ng/mL and 1301 ng/mL
151 IV 1.0 mg/kg, SD rats, 0.083 h, mean
  151 plasma concentration: 1489 ng/mL
151 IV 1.0 mg/kg, SD rats, 0.250 h, individual, 1 mg/kg
  151 plasma concentration: 1160 ng/mL and 949 ng/mL
151 IV 1.0 mg/kg, SD rats, 0.250 h, mean
  151 plasma concentration: 1055 ng/mL
151 IV 1.0 mg/kg, SD rats, 0.50 h, individual, 1 mg/kg
  151 plasma concentration: 760 ng/mL and 807 ng/mL
151 IV 1.0 mg/kg, SD rats, 0.50 h, mean
  151 plasma concentration: 683 ng/mL
151 IV 1.0 mg/kg, SD rats, 1.0 h, individual, 1 mg/kg
  151 plasma concentration: 381 ng/mL and 314 ng/mL
151 IV 1.0 mg/kg, SD rats, 1.0 h, mean
  151 plasma concentration: 348 ng/mL
151 IV 1.0 mg/kg, SD rats, 2.0 h, individual, 1 mg/kg
  151 plasma concentration: 95.8 ng/mL and 103 ng/mL
151 IV 1.0 mg/kg, SD rats, 2.0 h, mean
  151 plasma concentration: 99.6 ng/mL
151 IV 1.0 mg/kg, SD rats, 3.0 h, individual, 1 mg/kg
  151 plasma concentration: 39.6 ng/mL and 28.1 ng/mL
151 IV 1.0 mg/kg, SD rats, 3.0 h, mean
  151 plasma concentration: 33.8 ng/mL
151 IV 1.0 mg/kg, SD rats, 5.0 h, individual, 1 mg/kg
  151 plasma concentration: 9.75 ng/mL and 3.63 ng/mL
151 IV 1.0 mg/kg, SD rats, 5.0 h, mean
  151 plasma concentration: 6.69 ng/mL
151 IV 1.0 mg/kg, SD rats, 7.0 h, individual, 1 mg/kg
  151 plasma concentration: 12.2 ng/mL and 1.83 ng/mL
151 IV 1.0 mg/kg, SD rats, 7.0 h, mean
  151 plasma concentration: 7.02 ng/mL
151 IV 1.0 mg/kg, SD rats, 9.0 h, individual
  151 plasma concentration: 2.01 ng/mL
151 IV 1.0 mg/kg, SD rats, 9.0 h, individual, 1 mg/kg
  151 plasma concentration: BLQ
151 IV 1.0 mg/kg, SD rats, 9.0 h, mean
  151 plasma concentration: 1.00 ng/mL
151 IV 1.0 mg/kg, SD rats, 24 h, individual
  151 plasma concentration: BLQ
151 PO 10 mg/kg and iv 1.0 mg/kg
  conversion of 151 to 100 in plasma (statement): converted to LB100
151 PO 10 mg/kg, SD rats, 0.25 h, individual, 10 mg/kg
  151 plasma concentration: 2231 ng/mL and 2029 ng/mL and 2731 ng/mL
151 PO 10 mg/kg, SD rats, 0.25 h, mean
  151 plasma concentration: 2330 ng/mL
151 PO 10 mg/kg, SD rats, 0.50 h, individual, 10 mg/kg
  151 plasma concentration: 2451 ng/mL and 3934 ng/mL and 3343 ng/mL
151 PO 10 mg/kg, SD rats, 0.50 h, mean
  151 plasma concentration: 3243 ng/mL
151 PO 10 mg/kg, SD rats, 1.0 h, individual, 10 mg/kg
  151 plasma concentration: 2204 ng/mL and 2581 ng/mL and 2538 ng/mL
151 PO 10 mg/kg, SD rats, 1.0 h, mean
  151 plasma concentration: 2441 ng/mL
151 PO 10 mg/kg, SD rats, 2.0 h, individual, 10 mg/kg
  151 plasma concentration: 1100 ng/mL and 1237 ng/mL and 1582 ng/mL
151 PO 10 mg/kg, SD rats, 2.0 h, mean
  151 plasma concentration: 1306 ng/mL
151 PO 10 mg/kg, SD rats, 3.0 h, individual, 10 mg/kg
  151 plasma concentration: 521 ng/mL and 660 ng/mL and 794 ng/mL
151 PO 10 mg/kg, SD rats, 3.0 h, mean
  151 plasma concentration: 658 ng/mL
151 PO 10 mg/kg, SD rats, 5.0 h, individual, 10 mg/kg
  151 plasma concentration: 125 ng/mL and 99.4 ng/mL and 192 ng/mL
151 PO 10 mg/kg, SD rats, 5.0 h, mean
  151 plasma concentration: 139 ng/mL
151 PO 10 mg/kg, SD rats, 7.0 h, individual, 10 mg/kg
  151 plasma concentration: 42.6 ng/mL and 20.7 ng/mL and 68.0 ng/mL
151 PO 10 mg/kg, SD rats, 7.0 h, mean
  151 plasma concentration: 43.8 ng/mL
151 PO 10 mg/kg, SD rats, 9.0 h, individual, 10 mg/kg
  151 plasma concentration: 52.1 ng/mL and 38.2 ng/mL and 66.1 ng/mL
151 PO 10 mg/kg, SD rats, 9.0 h, mean
  151 plasma concentration: 52.1 ng/mL
151 PO 10 mg/kg, SD rats, 24 h, individual
  151 plasma concentration: BLQ
151 PO 10 mg/kg, SD rats, mean
  F of 151: 54.6%
  AUC0-t of 151: 6340 ng·h/mL
  AUC0-∞ of 151: 6437 ng·h/mL
  Cmax of 151: 3243 ng/mL
  MRT of 151: 1.81 h
  T1/2 of 151: 1.26 h
151 administered to rats
  conversion to endothal in the plasma (statement): converted to endothal
151 iv 1.0 mg/kg
  mean clearance of 151 from rat plasma: 859 mL/h/kg
  volume of distribution at steady state of 151: 736 mL/kg
151 iv 1.0 mg/kg (n=2)
  elimination half-life of 151: 53.4 min
151 oral 10 mg/kg (n=3)
  mean half-life of 151: 1.26 h
  time of peak plasma concentration of 151: 0.5 h
Oral 10 mg/kg, based on AUC0-∞
  absolute bioavailability (F) of 151: 54.6%
[1]
  AUC0-t of 151: 1293 ng·h/mL and 1045 ng·h/mL
  AUC0-∞ of 151: 1309 ng·h/mL and 1047 ng·h/mL
  CL of 151: 764 mL/h/kg and 955 mL/h/kg
  MRT of 151: 0.91 h and 0.81 h
  T1/2 of 151: 0.91 h and 0.87 h
  Vss of 151: 696 mL/kg and 775 mL/kg
[2]
  AUC0-t of 151: 1169 ng·h/mL
  AUC0-∞ of 151: 1178 ng·h/mL
  CL of 151: 859 mL/h/kg
  MRT of 151: 0.86 h
  T1/2 of 151: 0.89 h
  Vss of 151: 736 mL/kg
[3]
  AUC0-t of 151: 5399 ng·h/mL and 6423 ng·h/mL and 7199 ng·h/mL
  AUC0-∞ of 151: 5499 ng·h/mL and 6484 ng·h/mL and 7328 ng·h/mL
  Cmax of 151: 2451 ng/mL and 3934 ng/mL and 3343 ng/mL
  MRT of 151: 1.86 h and 1.62 h and 1.95 h
  T1/2 of 151: 1.33 h and 1.10 h and 1.35 h
